Source: patent US20200282009A1, “METHODS OF TREATING DISEASES ASSOCIATED WITH VASCULAR SMOOTH MUSCLE CELL PROLIFERATION” (BioLineRx Ltd., priority 2017, published 2020)

How the values were obtained:
Assay type in all cases: cell-based, human
SK-N-BE(2)-CXCR4 cells = experiment: Cell survival assay (PI staining, FACS); settings: SK-N-BE(2)-CXCR4 compared to native cell line; 0-10 μM, 24 hours
Experimental: A total of 1×10^5 cells/mL were cultured in 24-well plates with […] RPMI 1640 medium supplemented with 10% FCS. 24 hours later, the medium was changed to RPMI 1640 supplemented with either 1% FCS, with BL-8040 or AMD3100 or ABT199. Then 24 hours later, the cells were harvested, washed, and stained with PI (Sigma). The number of live cells was counted and analyzed using FACS analysis.
In order to stably overexpress CXCR4, SK-N-BE(2) cells were transduced with the lentiviral bicistronic vector harboring a CXCR4 expression cassette. This was done using a three-plasmid system: pHR′-CMVCXCR4-IRES-GFP-WPRE; envelope coding plasmid VSV-G and a packaging construct CMVDR8.91 according to previously published protocol (23). For transduction of SK-N-BE(2) cells, 1 ml of viral supernatant was used, which is equivalent to an m.o.i. of ˜9.

SK-N-BE(2) cells [1] = experiment: Soft agar colony assay; settings: CXCL12 100 ng/ml, 14 days
Experimental: An agar base layer was prepared as follows: 45 mL RPMI plus 12% FCS was mixed with 15 mL RPMI 32 plus 12% FCS and 15 mL 2.5% agar in double-distilled water. The tumor cells were suspended in RPMI plus 10% FCS. Cell suspension was mixed in a ratio of 1:3 with the agar base solution. This mixture was then plated on top of a preformed solid agar base. CXCL12 (100 ng/mL) or BL-8040 (20 μM) or anti-CXCR4 (1 μg/ml) were added to the mixture. Fourteen days later, the number of colonies was counted in 10 different fields.

SK-N-BE(2) cells [2] = experiment: Cell proliferation assay with CXCL12
Experimental: (§1) Cells were seeded at 2×10^4 cells/1 ml per well into a 24-well plate in medium supplemented with 0.1% FCS with or without various concentrations of CXCL12 (PeproTech EC). On days 2, 4 and 7, cells were harvested, stained with propidium iodide (PI, Sigma), and the number of viable cells was determined using FACS analysis.

Shy-SY5Y cells = experiment: Cell proliferation assay with CXCL12; settings: CXCL12 500 ng/ml
Experimental: as §1

[3] = tested on: BCL-2 and CCND1 in SK-N-BE(2) cells; experiment: qPCR of target genes after miR transfection
Experimental: cDNA was synthesized from 0.5-1 μg total RNA using the Quanta Biosciences qScript™ cDNA Synthesis Kit (95047-100) for mRNA analysis, and using the qScript™ microRNA cDNA Synthesis Kit (95107-100) for miRNAs analysis. Quantiative PCR (qPCR) of miRNAs and mRNA was performed using the CFX384, C1000 touch thermal cycler (Bio-Rad) and a SYBR Green PCR Kit: Quanta Cat. #84018 and #84071, respectively. The fold expression and statistical significance were calculated using the 2-ΔΔ Ct method. All experiments were performed in triplicate.
Transfections were performed using Lipofectamine 2000 transfection reagent (Invitrogen) according to the manufacturer's protocol. Plasmids were purchased from Dharmacon. MiR-15a: miRIDIAN microRNA hsa-miR-15a-5p mimic. MiR-16-1: miRIDIAN microRNA hsa-miR-16-5p mimic. Negative control miR: miRIDIAN microRNA inhibitor negative control. AntagomiR-15a: miRIDIAN microRNA hsa-miR-15a-5p hairpin inhibitor. AntagomiR-16-1: miRIDIAN microRNA hsa-miR-16-5p hairpin inhibitor. AntagomiR negative control: miRIDIAN microRNA hairpin inhibitor negative control 1. All miRNA-mimics and antagomiRs were transfected at 50 nM or 100 nM. To determine the efficiency of transfection, at 48 hours post-transfection, the cells were analyzed for RNA.

## CC1(C)CCC(CN2CCN(c3ccc(C(=O)NS(=O)(=O)c4ccc(NCC5CCOCC5)c([N+](=O)[O-])c4)c(Oc4cnc5[nH]ccc5c4)c3)CC2)=C(c2ccc(Cl)cc2)C1 [ABT-199, reference compound]
SK-N-BE(2)-CXCR4 cells
  resistance to the BCL-2 inhibitor (viability): high resistance

## CXCL12: the ligand of CXCR4 (PeproTech EC)
SK-N-BE(2) cells [1]
  colony formation with CXCL12: high colony formation ability
SK-N-BE(2) cells [2]
  proliferation with CXCL12: no response
Shy-SY5Y cells
  proliferation with CXCL12: increased proliferation

## miR-16-1: miRIDIAN microRNA hsa-miR-16-5p mimic (guide TAGCAGCACGTAAATATTGGCG; mimic duplex; passenger strand missing)
[3]
  level of both target genes (BCL-2 and CCND1) after transfection: reduction
